From patent US5166208A, “Fredericamycin A derivatives” (Boston College, priority 1991, dated 1992)
≈ marks a conversion by molar mass, not a printed value. Like-named read-outs stand apart in the source and are kept apart here.

How the values were obtained:
murine melanoma (B16) = experiment: In vitro microdilution inhibition, B16; format: cell-based; settings: Mus musculus; B16, 72 hours, 50% of cells killed
Text: (§1) As shown in Table III the compounds of the present invention exert an in vitro antitumor effect. The following cells lines were employed: human lung (A549); resistant human lung with low topo II activity (A549-VP); murine melanoma (B16); human colon tumor (HCT116); human colon tumor with elevated p170 levels (HCTVM); human colon tumor with low topo II activity (HCTVP); and another human colon carcinoma cell line (Moser). In the Table, the designation "NT" indicates the compound was not tested against the specified cell line. The cell lines were maintained in continuous culture at 37°, 5% CO2 and high humidity. Cells were harvested in log phase growth and suspended at concentration of 25,000 cells/mL. A […] aliquot was then added to each well (i.e., 3,750 cells per well) of a 96-well flat bottom plate and the cells were allowed to attach over a 24 hour period. After this 24 hour incubation, a 50 μL sample of the specified compound was added to the first (top) well of each column, and the remaining wells of each column serially diluted, 1:4, and allowed to incubate for 72 hours at 37° C., 5% CO2 and high humidity. Following incubation, 50 μL of freshly prepared stain solution was added to each well. After a 3 hour incubation at room temperature, absorbance was read at 450 nm on a microplate reader to determine the compound concentration at which 50% of the cells were killed, such concentration referred to as the "IC50 ".

[1] = system: human colon tumor (HCT116); experiment: In vitro microdilution inhibition, HCT116; format: cell-based; settings: HCT-116, 72 hours, 50% of cells killed
Text: as §1

[2] = system: human colon carcinoma cell line (Moser); experiment: In vitro microdilution inhibition, Moser; format: cell-based; settings: 72 hours, 50% of cells killed
Text: as §1

[3] = system: human colon tumor with low topo II activity (HCTVP); experiment: In vitro microdilution inhibition, HCTVP; format: cell-based; settings: 72 hours, 50% of cells killed
Text: as §1

[4] = system: resistant human lung with low topo II activity (A549-VP); experiment: In vitro microdilution inhibition, resistant human lung A549-VP; format: cell-based; settings: A549VP, 72 hours, 50% of cells killed
Text: as §1

[5] = system: human colon tumor with elevated p170 levels (HCTVM); experiment: In vitro microdilution inhibition, HCTVM; format: cell-based; settings: 72 hours, 50% of cells killed
Text: as §1

human lung (A549) = experiment: In vitro microdilution inhibition, human lung A549; format: cell-based; settings: A549, 72 hours, 50% of cells killed
Text: as §1

p388 murine leukemia = experiment: In vivo activity against p388 murine leukemia in an acute mouse model; settings: for AWC (average weight change per mouse): before treatment to day five
Experimental: CDF1 mice of both sexes weighing between 16 and 25 gm. were used, with a 2 gm. weight range and same sex and source used per experiment. BDF1 mice also were used with the same weight, sex and source parameters. Control and test animals were injected interperitoneally with suspension of 1×10^6 p388 murine leukemia cells (0.5 mL dose) on day 0. Groups of 4-6 mice were used for each dosage amount they were treated with 5 doses on day one. A group of ten saline treated control mice was included in each set of experiments. A 30 day protocol was employed with mean survival time in days being determined for each group of mice with the number of survivors at the end of the 30 day period being noted. The mice were weighed before treatment and again on day five. The values listed for average weight change (AWC) is the average weight change per mouse at the specified dose. The change in weight was taken as a measure of drug toxicity. A loss in weight of up to 2 grams is not considered excessive. The results were determined in terms of % T/C which is the ratio of the mean survival time of the treated group to the mean survival time of the saline treated group times 100.

L1210 mouse leukemia = settings: in vitro; cited from earlier work
p388 mouse leukemia = settings: in vitro; cited from earlier work

| SMILES | IC50 (murine melanoma (B16)) | IC50 [1] | IC50 [2] | IC50 [3] | IC50 [4] | IC50 [5] | IC50 (human lung (A549)) | AWC (average weight change per mouse) (p388 murine leukemia; CDF1 (female only), 5 mg/kg) | AWC (average weight change per mouse) (p388 murine leukemia; CDF1 (female only), 15 mg/kg) | % T/C (mean survival time treated/control) (p388 murine leukemia; CDF1 (female only), 45 mg/kg) | response vs control in vivo at 5 mg/kg (p388 murine leukemia; Mus musculus, P388, 720 h, CDF1 (female only), 5 mg/kg, read-out: % T/C (mean survival time treated/control)) | response vs control in vivo at 15 mg/kg (p388 murine leukemia; Mus musculus, P388, 720 h, CDF1 (female only), 15 mg/kg, read-out: % T/C (mean survival time treated/control)) | AWC (average weight change per mouse) (p388 murine leukemia; BDF1 (female only), 5 mg/kg) | AWC (average weight change per mouse) (p388 murine leukemia; BDF1 (female only), 15 mg/kg) | AWC (average weight change per mouse) (p388 murine leukemia; BDF1 (female only), 45 mg/kg) | response vs control in vivo at 5 mg/kg (p388 murine leukemia; Mus musculus, P388, 720 h, BDF1 (female only), 5 mg/kg, read-out: % T/C (mean survival time treated/control)) | response vs control in vivo at 15 mg/kg (p388 murine leukemia; Mus musculus, P388, 720 h, BDF1 (female only), 15 mg/kg, read-out: % T/C (mean survival time treated/control)) | response vs control in vivo at 45 mg/kg (p388 murine leukemia; Mus musculus, P388, 720 h, BDF1 (female only), 45 mg/kg, read-out: % T/C (mean survival time treated/control)) | cytotoxicity (L1210 mouse leukemia) | cytotoxicity (p388 mouse leukemia) |
| --- | --- | --- | --- | --- | --- | --- | --- | --- | --- | --- | --- | --- | --- | --- | --- | --- | --- | --- | --- | --- |
| CNC1=CC(=O)c2c(O)c3c(c(O)c2C1=O)C(=O)C1(CCc2cccc(OCOC)c21)C3=O (centres unmarked) [Example 12, 2',3'-Dihydro-6-methylamino-7'-(methoxymethoxy)-1H-indene-1'-spiro-2-[4,9-dihydroxy-2H-benz[f]-indene-1,3,5,8-tetrone]] | 0.03 µg/mL (≈ 0.0668 µM) | 0.03 µg/mL (≈ 0.0668 µM) | 0.03 µg/mL (≈ 0.0668 µM) | 0.03 µg/mL (≈ 0.0668 µM) | 0.05 µg/mL (≈ 0.111 µM) | 0.05 µg/mL (≈ 0.111 µM) | < 0.03 µg/mL | – | – | – | – | – | – | – | – | – | – | – | – | – |
| CCCCCc1cc2cc3c(c(OCOC)c2c(OC)n1)C1(CC3)C(=O)c2c(O)c3c(c(O)c2C1=O)C(=O)C=CC3=O [Example 7, 6',7'-Dihydro-1-methoxy-9'-(methoxymethoxy)-3'-(n-pentyl)-spiro[2H-benz[f]indene-2,8'-[8H]cyclopent[g]isoquinoline]-1,3,5,8-tetrone] | 7 µg/mL (≈ 12.2 µM) | 1.2 µg/mL (≈ 2.1 µM) | 5.9 µg/mL (≈ 10.3 µM) | 1.2 µg/mL (≈ 2.1 µM) | 8.5 µg/mL (≈ 14.9 µM) | – | 5 µg/mL (≈ 8.75 µM) | -2.8 | -3.8 | Toxic | 150% | 150% | – | – | – | – | – | – | – | – |
| CCCCCc1cc2cc3c(c(O)c2c(=O)[nH]1)C1(CC3)C(=O)c2c(O)c3c(c(O)c2C1=O)C(=O)C=CC3=O [Example 8, 2',6',7'-Trihydro-4,9,9'-trihydroxy-3'-(n-pentyl)-spiro[2H-benz[f]-indene-2,8'-[8H]cyclopent[g]isoquinoline]-1,1',3,5,8-pentone] | 18 µg/mL (≈ 35.1 µM) | 14.5 µg/mL (≈ 28.2 µM) | 18.3 µg/mL (≈ 35.6 µM) | – | 26.5 µg/mL (≈ 51.6 µM) | – | 24.5 µg/mL (≈ 47.7 µM) | – | – | – | – | – | 1.0 | -1.5 | -2.8 | 125% | 135% | 145% | – | – |
| COCOc1cccc2c1C1(CC2)C(=O)c2c(O)c3c(c(O)c2C1=O)C(=O)C(Nc1cccc(C(=O)O)c1)=CC3=O (centres unmarked) [Example 20, 2',3'-Dihydro-7'-(methoxymethoxy)-1H-indene-1,-spiro-2-[6-(3-carboxyanilino)-4,9-dihydroxy-2H-benz[f]indene-1,2,5,8-tetrone]] | > 16 µg/mL | > 16 µg/mL | > 16 µg/mL | > 16 µg/mL | > 16 µg/mL | > 16 µg/mL | > 16 µg/mL | – | – | – | – | – | – | – | – | – | – | – | – | – |
| C/C=C/C=C/c1cc2cc3c(c(O)c2c(=O)[nH]1)C1(CC3)C(=O)c2c(O)c3c(c(O)c2C1=O)C(=O)C(OC)=CC3=O (centres unmarked) [fredericamycin A] | – | – | – | – | – | – | – | – | – | – | – | – | – | – | – | – | – | – | comparable to doxorubicin and actinomycin | comparable to doxorubicin and actinomycin |
